In the NIST ThermoML archive (doi:10.1016/j.jct.2014.09.011):

Experiment: mn = molality of the nth substance listed, in mol/kg
Conditions: 101.3 kPa, Liquid; for speed of sound: Frequency=2 MHz, Linear variable-path acoustic interferometer; for mass density: Pycnometric method

O=C(O)[C@]1(O)C[C@@H](O)[C@@H](O)[C@H](O)C1 + O
Conditions | mass density [kg/m3] | speed of sound [m/s]
278.15 K, m1 = 0.01 | 1000.73 | 1427.1
278.15 K, m1 = 0.0198 | 1001.5 | 1428.1
278.15 K, m1 = 0.0299 | 1002.27 | 1429.2
278.15 K, m1 = 0.0374 | 1002.84 | 1429.9
278.15 K, m1 = 0.0405 | 1003.09 | 1430.2
278.15 K, m1 = 0.0441 | 1003.35 | 1430.6
278.15 K, m1 = 0.0492 | 1003.74 | 1431
278.15 K, m1 = 0.0601 | 1004.55 | 1432.1
278.15 K, m1 = 0.0634 | 1004.82 | 1432.4
278.15 K, m1 = 0.072 | 1005.45 | 1433.3
278.15 K, m1 = 0.0815 | 1006.18 | 1434.3
278.15 K, m1 = 0.0892 | 1006.75 | 1435
278.15 K, m1 = 0.1001 | 1007.56 | 1436.1
288.15 K, m1 = 0.0096 | 999.82 | 1466.7
288.15 K, m1 = 0.0238 | 1000.89 | 1467.9
288.15 K, m1 = 0.0297 | 1001.32 | 1468.4
288.15 K, m1 = 0.0362 | 1001.8 | 1468.9
288.15 K, m1 = 0.0403 | 1002.1 | 1469.3
288.15 K, m1 = 0.0447 | 1002.43 | 1469.6
288.15 K, m1 = 0.0489 | 1002.74 | 1470
288.15 K, m1 = 0.0542 | 1003.11 | 1470.4
288.15 K, m1 = 0.061 | 1003.63 | 1471
288.15 K, m1 = 0.0683 | 1004.16 | 1471.6
288.15 K, m1 = 0.0795 | 1004.98 | 1472.5
288.15 K, m1 = 0.0869 | 1005.52 | 1473.1
288.15 K, m1 = 0.0992 | 1006.4 | 1474.2
298.15 K, m1 = 0.0096 | 997.74 | 1497.4
298.15 K, m1 = 0.0199 | 998.49 | 1498.3
298.15 K, m1 = 0.0254 | 998.89 | 1498.7
298.15 K, m1 = 0.0304 | 999.25 | 1499.1
298.15 K, m1 = 0.0385 | 999.83 | 1499.7
298.15 K, m1 = 0.0415 | 1000.05 | 1500
298.15 K, m1 = 0.0493 | 1000.6 | 1500.6
298.15 K, m1 = 0.0542 | 1000.95 | 1501
298.15 K, m1 = 0.061 | 1001.46 | 1501.5
298.15 K, m1 = 0.0716 | 1002.18 | 1502.4
298.15 K, m1 = 0.0786 | 1002.68 | 1502.9
298.15 K, m1 = 0.0869 | 1003.27 | 1503.6
298.15 K, m1 = 0.1007 | 1004.22 | 1504.7

Cl.N=C(N)N [guanidine hydrochloride] + O
Conditions | mass density [kg/m3] | speed of sound [m/s]
278.15 K, m1 = 0.0101 | 1000.29 | 1427
278.15 K, m1 = 0.0162 | 1000.5 | 1427.5
278.15 K, m1 = 0.0196 | 1000.61 | 1427.8
278.15 K, m1 = 0.0227 | 1000.7 | 1428
278.15 K, m1 = 0.0291 | 1000.91 | 1428.5
278.15 K, m1 = 0.039 | 1001.25 | 1429.3
278.15 K, m1 = 0.0501 | 1001.58 | 1430.3
278.15 K, m1 = 0.0586 | 1001.85 | 1431
278.15 K, m1 = 0.0619 | 1001.96 | 1431.2
278.15 K, m1 = 0.0685 | 1002.17 | 1431.8
278.15 K, m1 = 0.0807 | 1002.54 | 1432.8
278.15 K, m1 = 0.0882 | 1002.78 | 1433.4
278.15 K, m1 = 0.0981 | 1003.08 | 1434.2
288.15 K, m1 = 0.0102 | 999.41 | 1466.6
288.15 K, m1 = 0.0201 | 999.7 | 1467.3
288.15 K, m1 = 0.0267 | 999.9 | 1467.8
288.15 K, m1 = 0.0297 | 999.98 | 1468
288.15 K, m1 = 0.0387 | 1000.25 | 1468.6
288.15 K, m1 = 0.0437 | 1000.41 | 1469
288.15 K, m1 = 0.0502 | 1000.59 | 1469.4
288.15 K, m1 = 0.0598 | 1000.86 | 1470.1
288.15 K, m1 = 0.0634 | 1000.97 | 1470.4
288.15 K, m1 = 0.0697 | 1001.15 | 1470.8
288.15 K, m1 = 0.0798 | 1001.43 | 1471.5
288.15 K, m1 = 0.0926 | 1001.79 | 1472.4
288.15 K, m1 = 0.1009 | 1002.03 | 1473
298.15 K, m1 = 0.0101 | 997.34 | 1497.4
298.15 K, m1 = 0.0162 | 997.52 | 1497.8
298.15 K, m1 = 0.0196 | 997.61 | 1497.9
298.15 K, m1 = 0.0267 | 997.81 | 1498.4
298.15 K, m1 = 0.0299 | 997.9 | 1498.6
298.15 K, m1 = 0.0349 | 998.05 | 1498.9
298.15 K, m1 = 0.0401 | 998.17 | 1499.2
298.15 K, m1 = 0.0515 | 998.5 | 1499.9
298.15 K, m1 = 0.0586 | 998.7 | 1500.4
298.15 K, m1 = 0.0705 | 999.01 | 1501.2
298.15 K, m1 = 0.0807 | 999.29 | 1501.8
298.15 K, m1 = 0.0926 | 999.61 | 1502.5
298.15 K, m1 = 0.1009 | 999.84 | 1503
